Results reported in the supplement of paper PMC12420376.

Columns and labels:
OVCAR8 = experiment: drug sensitivity score (DSS2) on cancer cell count; higher = more sensitive; extreme values may be limits of the assay; conditions: 72 h
Summary of the method: (§1)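 Screen quality was checked by Z', and a drug sensitivity score was derived in Breeze from logistic fits of the cancer cell counts. These counts were obtained by imaging at 10× (4 fields) after fixing and immunostaining for CK8/18 with Hoechst. Before that, ovarian cancer cells, alone or in 1:1 direct co-culture with lung or skin fibroblasts, had been treated for 72 h on 384-well plates acoustically pre-spotted with 528 approved and investigational compounds at 5 concentrations.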

KURAMOCHI = experiment: as above; conditions: 72 h
Summary of the method: as §1

[1] = co-cultured fibroblast: BJHTERT
[2] = co-cultured fibroblast: none (monoculture)

Structure (SMILES)	drug sensitivity score (OVCAR8; [1]) [DSS]	drug sensitivity score (OVCAR8; co-cultured fibroblast: WI38) [DSS]	drug sensitivity score (OVCAR8; [2]) [DSS]	drug sensitivity score (KURAMOCHI; [1]) [DSS]	drug sensitivity score (KURAMOCHI; co-cultured fibroblast: WI38) [DSS]	drug sensitivity score (KURAMOCHI; [2]) [DSS]
COc1ccc(C[C@H](NC(=O)[C@H](C)NC(=O)CN2CCOCC2)C(=O)N[C@@H](Cc2ccccc2)C(=O)C2(C)CO2)cc1 (stereo in doubt) [ONX-0914]	8.4	16.1	17.8	15.7	17.7	17.6
Cn1cc(C[C@@H](N)C(=O)O)c2ccccc21 [1-methyl-D-tryptophan]	0	0	0	0	0	10.3
CC/C(=C(\c1ccc(O)cc1)c1ccc(OCCN(C)C)cc1)c1ccccc1 [4-hydroxytamoxifen]	0.2	0	4.9	4.8	1.8	2.2
Nc1ncnc2c1nc(N)n2[C@@H]1O[C@H](CO)[C@@H](O)[C@H]1O [8-amino-adenosine]	17.9	16.5	19.5	21	20.3	21.4
Nc1ncnc2c1nc(Cl)n2[C@@H]1O[C@H](CO)[C@@H](O)[C@H]1O [8-chloro-adenosine]	12.9	9.9	16.9	10.1	10.4	10.3
COc1cc2c(cc1OCCCN1CCCC1)N=C(N)C21CCC1 [A-366]	4.1	0	0.3	2.1	0.5	0
COc1ccc(S(=O)(=O)Nc2cccnc2Nc2ccc(O)cc2)cc1 [ABT-751]	18.7	15.9	19.3	14.5	17.3	17.9
C[C@H](Nc1ncnc2[nH]cnc12)c1cc2ccc(F)cc2nc1-c1ccccn1 [AMG319]	0	5.8	0	1.2	0	0
CC(C)[C@@H](CS(=O)(=O)C(C)C)N1C(=O)[C@@](C)(CC(=O)O)C[C@H](c2cccc(Cl)c2)[C@H]1c1ccc(Cl)cc1 [AMG-232]	1.6	0	0.7	0.2	0	0.5
COCCOc1cnc2ccn([C@H](C)c3nnc4c(F)cc(-c5cnn(C)c5)cn34)c(=O)c2c1 [AMG-337]	0	0	0	0	0	0
CC1CCC(n2c3cnccc3c3cnc(Nc4ccc5c(n4)CCN(C(=O)CO)C5)nc32)CC1 (stereo not given) [AMG-925]	0	0	0	0	2.2	0
COCC1(CO)C(=O)C2CCN1CC2 (stereo not given) [APR-246]	0	0	0	0	0	0
CC(C)[C@H](C(=O)Nc1ccc(C(=O)NO)cc1)c1ccccc1 [AR-42]	17.8	15.3	18.8	14	15.8	12.3
Cc1sc2c(c1C)C(c1ccc(Cl)cc1)=N[C@@H](CC(=O)Nc1ccc(OCCOCCOCCOCCNc3cccc4c3C(=O)N(C3CCC(=O)NC3=O)C4=O)cc1)c1nnc(C)n1-2 (stereo not given in full) [ARV-825]	19.6	14.7	18.8	6.9	7.9	4.5
COc1cc(N2CCC(N3CCN(C)CC3)CC2)ccc1Nc1ncnc(Nc2ccccc2S(=O)(=O)C(C)C)n1 [ASP3026]	8.6	3.1	4.7	7.7	2	5.7
O=C(NC1CCNCC1)c1n[nH]cc1NC(=O)c1c(Cl)cccc1Cl [AT7519]	21.6	17.5	19.9	17.3	18.8	19.6
O=C(Nc1c[nH]nc1-c1nc2ccc(CN3CCOCC3)cc2[nH]1)NC1CC1 [AT9283]	10.7	14.2	9	15.8	16	19.6
CN[C@@H](C)C(=O)N[C@H]1CN(C(=O)CC(C)C)CC[C@H]2CC[C@@H](C(=O)NC(c3ccccc3)c3ccccc3)N2C1=O [AT-406]	10	9.9	9.7	0	0	0
CC[C@H](CC#N)OC(=O)N[C@@H](C)c1cccc(NC(=O)Nc2ccc(-c3cnco3)c(OC)c2)c1 [AVN944]	22.4	15	26.6	12.7	17.5	19.4
COc1cc(N2CCN(C)CC2)ccc1Nc1nccc(-c2cn(C)c3cnccc23)n1 [AZ191]	3.3	2	1.3	5.9	2.3	6.9

Structure (SMILES)	drug sensitivity score (OVCAR8; [1]) [DSS]	drug sensitivity score (OVCAR8; co-cultured fibroblast: WI38) [DSS]	drug sensitivity score (OVCAR8; [2]) [DSS]	drug sensitivity score (KURAMOCHI; [1]) [DSS]	drug sensitivity score (KURAMOCHI; co-cultured fibroblast: WI38) [DSS]	drug sensitivity score (KURAMOCHI; [2]) [DSS]
COc1cc(OC2CCN(C)CC2)ccc1Nc1ncc2c(n1)n(C1CCCC1)c(=O)n2C [AZ 3146]	8.3	9.6	4.3	1.8	3.2	1.5
CN(C)CCCOc1ccc(-c2ccc3ncc4c(c3c2)n(C2CCOCC2)c(=O)n4C)cn1 [AZD0156]	6.4	6.8	0.5	2.5	1.4	0.7
N[C@@H]1CCCN(c2c(/C=C3\SC(=O)NC3=O)cccc2-c2ccccc2)C1 [AZD1208]	0	0	1.8	0	1.7	1.3
Cc1cc(Nc2nc(N[C@@H](C)c3ncc(F)cn3)ncc2Cl)[nH]n1 [AZD1480]	0.4	0	0.4	0.1	0.7	0
C=CCn1c(=O)c2cnc(Nc3ccc(N4CCN(C)CC4)cc3)nc2n1-c1cccc(C(C)(C)O)n1 [AZD1775]	21	14.9	18.4	15.3	12.7	13.2
COc1cc2ncnc(Nc3cccc(Cl)c3F)c2cc1OC(=O)N1CCN(C)C[C@H]1C [AZD3759]	0.8	3.6	0	1.1	0	0
Cc1[nH]nc(C(F)(F)F)c1Cc1sc2c(c1C(=O)N1C[C@](C)(O)CO1)c(=O)n(C)c(=O)n2C(C)C [AZD3965]	0	0	0	0	1.7	0
COc1cc(CCc2cc(NC(=O)c3ccc(N4CC(C)NC(C)C4)cc3)n[nH]2)cc(OC)c1 (stereo not given) [AZD4547]	0	0	0	0	0	0
C[C@@H]1COCCN1c1cc(C2([S@](C)(=N)=O)CC2)nc(-c2cc[nH]c3nccc2-3)n1 [AZD6738]	11.1	4.4	8.1	10.4	8.6	10.9
CN(C)C(=O)c1ccc(S(=O)(=O)c2ccc(NC(=O)[C@@](C)(O)C(F)(F)F)c(Cl)c2)cc1 [AZD7545]	3.4	0	0.7	0.4	0	0
NC(=O)Nc1cc(-c2cccc(F)c2)sc1C(=O)N[C@H]1CCCNC1 [AZD7762]	7.3	9.2	4.5	8.7	6.6	22.4
COc1ccc(-c2ccc3c(N4CCOC[C@@H]4C)nc(N4CCOC[C@@H]4C)nc3n2)cc1CO [AZD8055]	17.9	11.4	21	21.3	18.1	19
N#Cc1ccc2[nH]c(O)c(-c3ccc(CN4CCOCC4)cn3)c2c1 [AZD-1080]	0.1	0	0	0	0	0
Cc1ncc(-c2ccnc(Nc3ccc(S(C)(=O)=O)cc3)n2)n1C(C)C [AZD-5438]	19	19.2	17.2	17.8	22.5	17.7
Cc1cc([C@@H](C)Nc2ccccc2C(=O)O)c2nc(N3CCOCC3)cc(=O)n2c1 [AZD-6482]	1.2	0	0	6.1	1.5	4.4
C[C@@H](Nc1cc(F)cc(F)c1)c1cc(C(=O)N(C)C)cc2c(=O)cc(N3CCOCC3)oc12 [AZD-8186]	0	0	0.8	8.7	3.8	6.5
CCN1CCN(Cc2ccc(Nc3ncc(F)c(-c4cc(F)c5nc(C)n(C(C)C)c5c4)n3)nc2)CC1 [Abemaciclib]	9.4	0	2.4	5.5	7.8	0.2
CN(C)Cc1c(C(=O)NCCOc2ccc(C(=O)NO)cc2)oc2ccccc12 [Abexinostat]	25.3	18.5	27.9	17.2	20.6	15.7
C[C@]12CC[C@H](O)CC1=CC[C@@H]1[C@@H]2CC[C@]2(C)C(c3cccnc3)=CC[C@@H]12 [Abiraterone]	0	0	0	0	0	0
CC#CC(=O)N1CCC[C@H]1c1nc(-c2ccc(C(=O)Nc3ccccn3)cc2)c2c(N)nccn12 [Acalabrutinib]	0	0	0	0	0	11
